{
  "source": "patent US8673950B2",
  "about": "“Dihydrooxazol-2-amine derivatives” (Hoffmann-LaRoche Inc., priority 2010, dated 2014)",
  "key": {"mouse TAAR1": {"biological_target": "mouse TAAR1 (Mus musculus (Mouse), UniProt Q923Y8)", "sequence (Q923Y8 whole entry)": "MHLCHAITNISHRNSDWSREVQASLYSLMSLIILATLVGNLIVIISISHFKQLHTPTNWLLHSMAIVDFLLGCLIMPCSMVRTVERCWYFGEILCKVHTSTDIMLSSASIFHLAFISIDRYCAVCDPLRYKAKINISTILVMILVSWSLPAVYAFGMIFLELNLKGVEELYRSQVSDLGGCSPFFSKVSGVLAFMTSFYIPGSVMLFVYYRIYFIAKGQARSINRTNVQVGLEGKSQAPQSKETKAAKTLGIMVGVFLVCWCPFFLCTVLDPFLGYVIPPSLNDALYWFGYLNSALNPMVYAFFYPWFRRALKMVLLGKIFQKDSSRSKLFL", "experiment": "Radioligand binding assay on mouse TAAR1", "conditions": "for Ki: mouse TAAR1, membranes of stably transfected HEK-293 cells, first value of cell mouse/rat"}, "rat TAAR1": {"biological_target": "rat TAAR1 (Rattus norvegicus (Rat), UniProt Q923Y9)", "sequence (Q923Y9 whole entry)": "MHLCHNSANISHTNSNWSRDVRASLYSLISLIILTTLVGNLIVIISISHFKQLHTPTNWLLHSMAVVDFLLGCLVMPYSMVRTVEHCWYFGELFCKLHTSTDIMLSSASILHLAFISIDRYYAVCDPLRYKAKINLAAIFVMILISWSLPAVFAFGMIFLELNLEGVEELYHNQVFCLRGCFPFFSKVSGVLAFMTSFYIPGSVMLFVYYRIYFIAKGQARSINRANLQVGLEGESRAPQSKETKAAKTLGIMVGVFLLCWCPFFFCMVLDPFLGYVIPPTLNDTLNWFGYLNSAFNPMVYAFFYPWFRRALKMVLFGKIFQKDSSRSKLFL", "experiment": "Radioligand binding assay on rat TAAR1", "conditions": "for Ki: rat TAAR1, membranes of stably transfected HEK-293 cells, second value of cell mouse/rat", "summary_of_the_method": "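Membranes from HEK293 cells stably expressing rat TAAR1, in 20 mM HEPES-NaOH pH 7.4 with 0.1 mM EDTA. Displacement of ^3[H]-(S)-4-[(ethyl-phenyl-amino)-methyl]-4,5-dihydro-oxazol-2-ylamine, nonspecific binding with 10 μM unlabeled ligand; compounds 10 pM to 10 μM in duplicate, 1 hr at 4° C. Filtration, then scintillation counting.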"}},
  "data": [
    {"smiles": "NC1=N[C@@H](CCc2ccc(NC(c3cc(Cl)cc(Cl)c3)C(F)(F)F)cc2)CO1", "note": "(stereo partly drawn) [Example 69, (4S)-4-(4-(1-(3,5-Dichlorophenyl)-2,2,2-trifluoroethylamino)phenethyl)-4,5-dihydrooxazol-2-amine]", "values": [
      {"measurement": "Ki", "setting": "mouse TAAR1", "value": 0.0355, "unit": "µM"},
      {"measurement": "Ki", "setting": "rat TAAR1", "value": 0.0407, "unit": "µM"}
    ]},
    {"smiles": "COc1cccc(C(Nc2ccc(CC[C@H]3COC(N)=N3)cc2)C(F)(F)F)n1", "note": "(stereo partly drawn) [Example 70, (4S)-4-(4-(2,2,2-Trifluoro-1-(6-methoxypyridin-2-yl)ethylamino)phenethyl)-4,5-dihydrooxazol-2-amine]", "values": [
      {"measurement": "Ki", "setting": "mouse TAAR1", "value": 0.134, "unit": "µM"},
      {"measurement": "Ki", "setting": "rat TAAR1", "value": 0.0205, "unit": "µM"}
    ]},
    {"smiles": "NC1=N[C@@H](CCc2ccc(Nc3ncc(Cl)cn3)nc2)CO1", "note": "[Example 71, {5-[2-((S)-2-Amino-4,5-dihydro-oxazol-4-yl)-ethyl]-pyridin-2-yl}-(5-chloro-pyrimidin-2-yl)-amine]", "values": [
      {"measurement": "Ki", "setting": "mouse TAAR1", "value": 0.0137, "unit": "µM"},
      {"measurement": "Ki", "setting": "rat TAAR1", "value": 0.0011, "unit": "µM"}
    ]},
    {"smiles": "Cc1cc(CC[C@H]2COC(N)=N2)ccc1Nc1ncc(Cl)cn1", "note": "[Example 72, {4-[2-((S)-2-Amino-4,5-dihydro-oxazol-4-yl)-ethyl]-2-methyl-phenyl}-(5-chloro-pyrimidin-2-yl)-amine]", "values": [
      {"measurement": "Ki", "setting": "mouse TAAR1", "value": 0.0019, "unit": "µM"},
      {"measurement": "Ki", "setting": "rat TAAR1", "value": 0.0007, "unit": "µM"}
    ]},
    {"smiles": "NC1=N[C@@H](CCc2ccc(Nc3ncc(OCC(F)(F)F)cn3)cc2)CO1", "note": "[Example 73, (S)-4-(4-(5-(2,2,2-Trifluoroethoxy)pyrimidin-2-ylamino)phenethyl)-4,5-dihydrooxazol-2-amine]", "values": [
      {"measurement": "Ki", "setting": "mouse TAAR1", "value": 0.02, "unit": "µM"},
      {"measurement": "Ki", "setting": "rat TAAR1", "value": 0.0028, "unit": "µM"}
    ]},
    {"smiles": "CS(=O)(=O)c1cnc(Nc2ccc(CC[C@H]3COC(N)=N3)cc2)nc1", "note": "[Example 74, (S)-4-(4-(5-(Methylsulfonyl)pyrimidin-2-ylamino)phenethyl)-4,5-dihydrooxazol-2-amine]", "values": [
      {"measurement": "Ki", "setting": "mouse TAAR1", "value": 0.046, "unit": "µM"},
      {"measurement": "Ki", "setting": "rat TAAR1", "value": 0.0146, "unit": "µM"}
    ]},
    {"smiles": "C[S+]([O-])c1cnc(Nc2ccc(CC[C@H]3COC(N)=N3)cc2)nc1", "note": "(stereo partly drawn) [Example 75, (4S)-4-(4-(5-(Methylsulfinyl)pyrimidin-2-ylamino)phenethyl)-4,5-dihydrooxazol-2-amine]", "values": [
      {"measurement": "Ki", "setting": "mouse TAAR1", "value": 0.48, "unit": "µM"},
      {"measurement": "Ki", "setting": "rat TAAR1", "value": 0.104, "unit": "µM"}
    ]},
    {"smiles": "CCN(C[C@H]1COC(N)=N1)c1ccccc1", "note": "[^3[H]-(S)-4-[(ethyl-phenyl-amino)-methyl]-4,5-dihydro-oxazol-2-ylamine, reference compound]", "values": [
      {"measurement": "Kd", "setting": "mouse TAAR1; mouse TAAR1 membranes, saturation curve, read-out: dissociation constant (Kd) of the radioligand", "value": "~0.7", "unit": "nM"},
      {"measurement": "Kd", "setting": "rat TAAR1; rat TAAR1 membranes, saturation curve, read-out: dissociation constant (Kd) of the radioligand", "value": "~2.3", "unit": "nM"}
    ]}
  ]
}
